Reference: patent publication US20180140579A1, “SACUBITRIL AND VALSARTAN FOR TREATING METABOLIC DISEASE” (NOVARTIS AG, priority 2015, published 2018)
“And” between values parts separate entries of the source, which are not always exact repeats. Equal entries are not always repeated.

What was measured:
[1] = system: patients with mild-to-moderate hypertension and abdominal adiposity; assay: Hyperinsulinemic-euglycemic glucose clamp (insulin sensitivity), clinical study NCT01631864; format: in vivo, human; details: for Glucose infusion rate by body weight (Mbw), Day 56, adjusted mean / Insulin sensitivity index, Day 56, adjusted mean: Day 56 (week 8)
Method: (§1) At baseline and week 8, peripheral insulin sensitivity (hyperinsulinemic-euglycemic glucose clamp), abdominal subcutaneous adipose tissue lipolysis (microdialysis), whole-body lipolysis (glycerol tracer kinetics), energy expenditure and substrate oxidation (indirect calorimetry) were determined.
Patients were also stratified into 4 groups based on the baseline Homeostasis Model Assessment of Insulin Resistance (HOMA-IR) (<2.5 and ≥2.5) and use of statin therapy within 8 weeks prior to randomization.
The HEGC assessment was performed on Day −1 (baseline) and on Day 56 under fasting conditions. A dorsal hand vein was catheterized and kept warm for arterialized blood sampling and the contralateral arm was cathetered for the infusion of glucose and insulin. […] Blood samples to determine glucose levels during the HEGC were collected continuously (automated clamp) or at approximately 5-min intervals (manual clamp). The last 30 minutes (minutes 90-120) of the clamp were considered as the steady state period and the mean glucose infusion rate was calculated for this time period.
The insulin sensitivity index (SI) was calculated from steady-state glucose infusion rates, and plasma insulin and glucose concentrations at steady-state (SI: Glucose infusion rate/[plasma glucose×plasma insulin], μg/kg*min/[mmol/L*pmol/L]). Furthermore whole-body glucose disposal rate (M, mg/min) was calculated from the mean glucose infusion rate at steady state to assess peripheral insulin sensitivity. Finally, the metabolic clearance rate (MCR) was calculated from M-value and the mean blood glucose concentration (BG) at steady-state (MCR: M/BG, min*mmol). The glucose disposal rate was also expressed per unit of insulin at steady-state, calculated from M-value and plasma insulin concentrations (M/l, U/min).
Differences between treatments for change in SI from baseline were analyzed as above.

[2] = system: patients with mild-to-moderate hypertension and abdominal adiposity; assay: Abdominal subcutaneous adipose tissue microdialysis (local lipolysis); format: in vivo, human; details: for Glucose in adipose tissue microdialysate, adjusted geometric mean ratio Day 57 vs Day 1 / Lactate in adipose tissue microdialysate, adjusted geometric mean ratio Day 57 vs Day 1 / Glycerol (free) in adipose tissue microdialysate, adjusted geometric mean ratio Day 57 vs Day 1 / interstitial glycerol levels at week 8 (subcutaneous adipose tissue lipolysis at rest): at rest; for Glycerol (free) in adipose tissue microdialysate, adjusted geometric mean ratio Day 57 vs Day 1: 8 weeks treatment; for interstitial glycerol levels at week 8 (subcutaneous adipose tissue lipolysis at rest): p=0.003 between groups
Method: Assessment of lipolysis at rest was performed on Day 1 prior to first dosage and on Day 57. Abdominal subcutaneous adipose tissue lipolysis was assessed by microdialysis in the fasting condition. […] Microdialysate samples for measurement of the analytes were collected at 30 minutes and 45 minutes in the flow calibration phase. Glycerol (an indicator of local lipolysis), glucose, and lactate concentrations were measured in the microdialysate, reflecting the interstitial concentrations in the adipose tissue. The ethanol ratio (ratio of ethanol concentration in dialysate to ethanol concentration in perfusate) was measured as an indicator of adipose tissue blood flow. For abdominal subcutaneous adipose tissue microdialysate data (ethanol ratio, dialysate lactate, dialysate glucose, and plasma glycerol, glycerol, NEFA, glucose, insulin, adrenalin, and noradrenalin) at rest, data was analyzed using repeated measures analysis on log transformed values with treatment, visit, time and treatment*visit*time interaction as fixed effects.

[3] = system: patients with mild-to-moderate hypertension and abdominal adiposity; assay: Energy expenditure and substrate oxidation by indirect calorimetry; format: in vivo, human; details: LCZ696 400 mg QD or amlodipine 10 mg QD; for Respiratory quotient (carbon dioxide to oxygen ratio), Day 57 adjusted mean (95% CI): Day 57, at rest
Method: as §1
Energy expenditure and substrate oxidation were assessed in parallel by indirect calorimetry using a ventilated hood system. The ventilated hood measurements were recorded for 30 minutes in the resting state (during the flow calibration phase).

[4] = system: patients with mild-to-moderate hypertension and abdominal adiposity; assay: Blood pressure monitoring (mean seated BP); format: in vivo, human; details: Day 57 vs baseline; LCZ696 400 mg QD or amlodipine 10 mg QD
Text: Seating BP was monitored at screening and throughout the study using the same equipment. During the home stay period, patients were given a home measurement device and instructed to monitor BP twice weekly at approximately the same time each morning (7-9 AM).

[5] = system: patients with mild-to-moderate hypertension and abdominal adiposity; assay: Safety assessments (adverse events); format: in vivo, human; details: for Discontinuations due to AEs: LCZ696 N = 50, amlodipine N = 48
Method: Safety assessments included adverse events (AEs) and serious adverse events (SAEs) and were conducted throughout the study by regular monitoring of hematology, blood chemistry and urine analysis as well as assessments of vital signs (BP and pulse measurements), ECG, physical condition and body weight. The pharmacodynamics (PD) analysis set included all patients with available PD data and no protocol deviations with relevant impact on PD data. The safety analysis set included all patients who received any of the study drugs.

[6] = system: patients with mild-to-moderate hypertension and abdominal adiposity; assay: Abdominal subcutaneous adipose tissue microdialysis (local lipolysis); format: in vivo, human
[7] = system: patients with impaired glucose tolerance and cardiovascular disease or risk factors; details: valsartan for 5 years, along with lifestyle modification; cited from earlier work
[8] = LCZ696 400 mg QD or amlodipine 10 mg QD
[9] = LCZ696 400 mg QD or amlodipine 10 mg QD, listed as AML
[10] = baseline to Day 56, LCZ696 400 mg QD or amlodipine 10 mg QD, 8 weeks
[11] = safety analysis set, 8-week treatment
[12] = 15 min exercise, p=0.014 between groups
[13] = 30 min exercise, p=0.010 between groups

Row | SMILES | Glucose infusion rate by body weight (Mbw), Day 56, adjusted mean [1, 8] | Insulin sensitivity index, Day 56, adjusted mean [1, 8] | Glucose in adipose tissue microdialysate, adjusted geometric mean ratio Day 57 vs Day 1 ([2]; 30 + 45 min combined, (95% CI)) | Lactate in adipose tissue microdialysate, adjusted geometric mean ratio Day 57 vs Day 1 ([2]; 30 + 45 min combined, (95% CI)) | Glycerol (free) in adipose tissue microdialysate, adjusted geometric mean ratio Day 57 vs Day 1 ([2]; 30 min time point, (95% CI)) | Glucose in adipose tissue microdialysate, adjusted geometric mean ratio Day 57 vs Day 1 ([2]; 30 min time point, (95% CI)) | Lactate in adipose tissue microdialysate, adjusted geometric mean ratio Day 57 vs Day 1 ([2]; 30 min time point, (95% CI)) | Glycerol (free) in adipose tissue microdialysate, adjusted geometric mean ratio Day 57 vs Day 1 ([2]; 45 min time point, (95% CI)) | Glucose in adipose tissue microdialysate, adjusted geometric mean ratio Day 57 vs Day 1 ([2]; 45 min time point, (95% CI)) | Lactate in adipose tissue microdialysate, adjusted geometric mean ratio Day 57 vs Day 1 ([2]; 45 min time point, (95% CI)) | interstitial glycerol levels at week 8 (subcutaneous adipose tissue lipolysis at rest) [2] [µmol/L] | Respiratory quotient (carbon dioxide to oxygen ratio), Day 57 adjusted mean (95% CI) [3] | Resting energy expenditure, Day 57 adjusted mean (95% CI) [3] | mean reduction in msDBP (mean seated diastolic blood pressure) [4] [mmHg] | mean reduction in msSBP (mean seated systolic blood pressure) [4] [mmHg] | Discontinuations due to AEs ([5]; 8-week treatment) | AEs suspected to be study drug related [5, 11] [%] | Peripheral edema reported [5, 11] | overall incidence of AEs [5, 11] [%] | microdialysate glycerol at week 8 [6, 12] [µmol/L] | further results
1 | CCOC(=O)C1=C(COCCN)NC(C)=C(C(=O)OC)C1c1ccccc1Cl (stereo not drawn) [Amlodipine, reference compound] | 3.87 mg/(min * kg) | 1.75 μg/kg * min/(mmol/L * pmol/L) | 0.99 (0.85; 1.16) | 0.90 (0.70; 1.16) | 0.87 (0.76; 0.99) | 1.00 (0.85; 1.16) | 0.91 (0.69; 1.19) | 0.85 (0.74; 0.98) | 0.98 (0.83; 1.16) | 0.90 (0.70; 1.16) | 63.99 | 0.77 (0.746; 0.804) | 1991.4 (1904.82; 2078.01) kcal | −10.0±7.8 | −12.4±14.7 | three | 46 | 16 patients | 77.1 | 128.8 | Glucose infusion rate by body weight (Mbw), Day 56, adjusted mean [1, 9]: 3.88 mg/(min * kg); Insulin sensitivity index, Day 56, adjusted mean [1, 9]: 1.76 μg/kg * min/(mmol/L * pmol/L); Glucose infusion rate by body weight (Mbw), adjusted mean change from baseline [1, 10]: 0.03 mg/(min * kg); Insulin sensitivity index, adjusted mean change from baseline [1, 10]: 0.065 μg/kg * min/(mmol/L * pmol/L); Insulin sensitivity index, adjusted mean change from baseline ([1]; baseline to Day 56, LCZ696 400 mg QD or amlodipine 10 mg QD, 8 weeks, listed as amlodipine): +0.065 μg/kg * min/(mmol/L * pmol/L); Glycerol (free) in adipose tissue microdialysate, adjusted geometric mean ratio Day 57 vs Day 1 ([2]; 30 + 45 min time points combined, (95% CI)): 0.86 (0.75; 0.97); microdialysate glycerol at week 8 [6, 13]: 149.19 µmol/L
2 | CCCCC(=O)N(Cc1ccc(-c2ccccc2-c2nnn[nH]2)cc1)[C@H](C(=O)O)C(C)C [valsartan, S—N-valeryl-N-{[2′-(1H-tetrazole-5-yl)-biphenyl-4-yl]-methyl}-valine] | – | – | – | – | – | – | – | – | – | – | – | – | – | – | – | – | – | – | – | – | relative reduction in the incidence of diabetes [7]: 14%
3 | CCCCC(=O)N(Cc1ccc(-c2ccccc2-c2nn[n-]n2)cc1)C(C(=O)[O-])C(C)C.CCOC(=O)C(C)CC(Cc1ccc(-c2ccccc2)cc1)NC(=O)CCC(=O)[O-].[Na+].[Na+].[Na+] [LCZ696, trisodium [3-((1S,3R)-1-biphenyl-4-ylmethyl-3-ethoxycarbonyl-1-butylcarbamoyl)propionate-(S)-3′-methyl-2′-(pentanoyl{2″-(tetrazol-5-ylate)biphenyl-4′-ylmethyl}amino)butyrate] hemipentahydrate] | 4.49 mg/(min * kg) | 1.88 μg/kg * min/(mmol/L * pmol/L) and 1.86 μg/kg * min/(mmol/L * pmol/L) | 1.02 (0.88; 1.18) | 0.84 (0.66; 1.06) | 1.02 (0.90; 1.16) | 1.03 (0.86; 1.20) | 0.81 (0.63; 1.04) | 1.07 (0.94; 1.22) | 1.01 (0.86; 1.18) | 0.86 (0.68; 1.09) | 80.53 | 0.78 (0.760; 0.814) | 1960.1 (1879.42; 2040.90) kcal | −12.4±9.1 | −21.0±16.1 | two | 24 | one | 60.0 | 153.1 | Metabolic clearance rate, Day 56, adjusted mean ([1]; Day 56, LCZ696 400 mg QD or amlodipine 10 mg QD): 79.07 mmol·min; Insulin sensitivity index, Treatment Difference (LCZ696-Amlodipine) ([1]; difference in adjusted mean change from baseline to Day 56 (95% CI), not statistically significant): 0.128 (−0.155; 0.410) μg/kg * min/(mmol/L * pmol/L); Glucose infusion rate by body weight (Mbw), Treatment Difference (LCZ696-Amlodipine) ([1]; difference in adjusted mean change from baseline to Day 56 (95% CI), p = 0.016): 0.61 (0.12; 1.11) mg/(min * kg); Metabolic clearance rate, Treatment Difference (LCZ696-Amlodipine) ([1]; difference in adjusted mean change from baseline to Day 56 (95% CI), p = 0.0312): 9.66 (0.89; 18.42) min * mmol; Glucose, Treatment differences, ratio of GMR (LCZ696 vs amlodipine) ([2]; 30 + 45 min combined, (95% CI)): 1.03 (0.83; 1.27); Lactate, Treatment differences, ratio of GMR (LCZ696 vs amlodipine) ([2]; 30 + 45 min combined, (95% CI)): 0.93 (0.65; 1.31); Glucose, Treatment differences, ratio of GMR (LCZ696 vs amlodipine) ([2]; 30 min time point, (95% CI)): 1.03 (0.82; 1.29); Glycerol (free), Treatment differences, ratio of GMR (LCZ696 vs amlodipine) ([2]; 30 min time point, (95% CI)): 1.18 (0.96; 1.43); Lactate, Treatment differences, ratio of GMR (LCZ696 vs amlodipine) ([2]; 30 min time point, (95% CI)): 0.89 (0.62; 1.29); Glucose, Treatment differences, ratio of GMR (LCZ696 vs amlodipine) ([2]; 45 min time point, (95% CI)): 1.03 (0.82; 1.29); Lactate, Treatment differences, ratio of GMR (LCZ696 vs amlodipine) ([2]; 45 min time point, (95% CI)): 0.96 (0.68; 1.36); change in ethanol ratio (indicator of adipose tissue blood flow), between treatment groups ([2]; LCZ696 vs amlodipine, any time point except 45 minute time point in the LCZ696 group (small, not considered relevant)): No significant differences; mild orthostatic hypertension reported ([5]; both resolved by the end of the study, suspected to be related to study drug): Two; Pruritus reported [5, 11]: five; microdialysate glycerol at week 8 [6, 13]: 187.63 µmol/L
